# Data reported in the supplement of paper PMC4862054.
# What was measured:
# Assay in all cases: drug sensitivity score (DSS), CellTiter-Glo (DSS (AUC-based score)); higher = stronger drug effect (viability inhibition or cytotoxicity); extreme values may be limits of the assay
# Conditions in all cases: incubation time: 72 h
# BT-474 = test system: BT-474
# How it was run: (§1)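 Using 20 µl of cell suspension per well, breast cancer cell lines were seeded into 384-well plates pre-loaded with compound at 5 concentrations in 10-fold steps across a compound-specific 10,000-fold range. Incubation lasted 72 h, after which CellTox Green fluorescence at 485/520 nm and then CellTiter-Glo luminescence, following 10 min at room temperature, were recorded. Each plate was normalised to 0.1 % DMSO and a positive kill control before the drug sensitivity score was derived from the area under the fitted dose-response curve.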
# DU-4475 = test system: DU-4475
# How it was run: as §1
# HCC1937 = test system: HCC1937
# How it was run: as §1
# HDQ-P1 = test system: HDQ-P1
# How it was run: as §1
# Hs578T = test system: Hs578T
# How it was run: as §1
# MCF-10A = test system: MCF-10A
# How it was run: as §1
# MDA-MB-231 = test system: MDA-MB-231
# How it was run: as §1
# MDA-MB-453 = test system: MDA-MB-453
# How it was run: as §1
# MDA-MB-468 = test system: MDA-MB-468
# How it was run: as §1
# SK-BR-3 = test system: SK-BR-3
# How it was run: as §1
Compound,drug sensitivity score (BT-474),drug sensitivity score (DU-4475),drug sensitivity score (HCC1937),drug sensitivity score (HDQ-P1),drug sensitivity score (Hs578T),drug sensitivity score (MCF-10A),drug sensitivity score (MDA-MB-231),drug sensitivity score (MDA-MB-453),drug sensitivity score (MDA-MB-468),drug sensitivity score (SK-BR-3)
CN[C@@H]1C[C@H]2O[C@@](C)([C@@H]1OC)n1c3ccccc3c3c4c(c5c6ccccc6n2c5c31)C(=O)N[C@H]4O [UCN-01],26,19.9,18.8,18.8,27.5,27.8,28.1,17.3,23.7,24
C#Cc1cccc(Nc2ncnc3cc(OCCOC)c(OCCOC)cc23)c1 [Erlotinib],0,0,0,9.11,0,16.3,0,0,0,2.74
CCC1=C[C@@H]2CN(C1)Cc1c([nH]c3ccccc13)[C@@](C(=O)OC)(c1cc3c(cc1OC)N(C)[C@H]1[C@@](O)(C(=O)OC)[C@H](OC(C)=O)[C@]4(CC)C=CCN5CC[C@]31[C@@H]54)C2 [Vinorelbine],12.3,6.47,8.42,7.16,19.8,10.2,13.7,15.6,24.8,37.5
NC(=O)Nc1cc(-c2cccc(F)c2)sc1C(=O)N[C@H]1CCCNC1 [AZD7762],4.13,0,2.78,3.06,3.86,3.48,5.67,5.03,1.93,3.78
Cn1c(Nc2ccc(C(F)(F)F)cc2)nc2cc(Oc3ccnc(-c4ncc(C(F)(F)F)[nH]4)c3)ccc21 [RAF265],0.538,1.18,1.88,5.82,2.49,0,0,0,4.79,0
CC(C)Cn1cnc2c(N)nc3ccccc3c21 [Imiquimod],0,0,0,0,0,0,0,0,0,0
N[C@@H](CSC(c1ccccc1)(c1ccccc1)c1ccccc1)C(=O)O [S-trityl-L-cysteine],0,0,0,0,0,0,0,0,0,0
Cc1ccc(C(=O)N(CCCN)[C@@H](c2oc3cc(Cl)ccc3c(=O)c2Cc2ccccc2)C(C)C)cc1,0,0,0,0,0,0,0,0,0,0
C=C(c1ccc(C(=O)O)cc1)c1cc2c(cc1C)C(C)(C)CCC2(C)C [Bexarotene],1.51,0,0,0,0,0,0,0,0,2.44
COc1cc([C@@H]2c3cc4c(cc3[C@@H](O[C@@H]3O[C@@H]5CO[C@@H](C)O[C@H]5[C@H](O)[C@H]3O)[C@H]3COC(=O)[C@H]23)OCO4)cc(OC)c1O [Etoposide],3.57,9.9,0,0.733,2.84,0,0.846,0,5.45,9.09
O=C(CCCCCCC(=O)Nc1ccc([C@H]2O[C@@H](CSc3nc(-c4ccccc4)c(-c4ccccc4)o3)C[C@@H](c3ccc(CO)cc3)O2)cc1)NO [Tubacin],4.89,1.66,3.76,2.55,0,0,6.83,8.42,8.6,1.97
CO[C@H]1/C=C\C=C(/C)C(=O)NC2=CC(=O)C(NCCN(C)C)=C(C[C@@H](C)C[C@H](OC)[C@H](O)[C@@H](C)/C=C(\C)[C@@H]1OC(N)=O)C2=O [Alvespimycin],11.6,17.6,12.6,14,10.6,14.9,13.3,15.3,11.9,14.5
Clc1ccc(Nc2nnc(Cc3ccncc3)c3ccccc23)cc1 [Vatalanib],0,0,0,0,0,0,0,0,0,0
C[C@@H](Oc1cc(-c2cnn(C3CCNCC3)c2)cnc1N)c1c(Cl)ccc(F)c1Cl [Crizotinib],0,0,0,0,0,0,0,0,0.0242,0
O=C(O)c1ccc(-c2c[nH]c3ncc(-c4ccccc4)cc23)cc1C1CCCC1,0.507,0,0,0,0.128,0,0,0,0,2.12
CNCc1ccc(-c2[nH]c3cc(F)cc4c3c2CCNC4=O)cc1 [Rucaparib],1.39,0,0,0,0,0,0,0,2.43,0

Compound,drug sensitivity score (BT-474),drug sensitivity score (DU-4475),drug sensitivity score (HCC1937),drug sensitivity score (HDQ-P1),drug sensitivity score (Hs578T),drug sensitivity score (MCF-10A),drug sensitivity score (MDA-MB-231),drug sensitivity score (MDA-MB-453),drug sensitivity score (MDA-MB-468),drug sensitivity score (SK-BR-3)
Oc1nc(-c2ccc(C(F)(F)F)cc2)nc2c1CSCC2 [XAV-939],3.54,0,0,0,0,0,2.7,0.956,0.9,0
COc1cc2nccc(Oc3ccc(NC(=O)C4(C(=O)Nc5ccc(F)cc5)CC4)cc3)c2cc1OC [Cabozantinib],1.14,0,0,0,0,0,0,0,0,0
N#CCNC(=O)c1ccc(-c2ccnc(Nc3ccc(N4CCOCC4)cc3)n2)cc1 [Momelotinib],4.25,0,0,0,4.38,5.18,4.43,0,5.4,2.75
CS(=O)(=O)c1ccc(C2=C(c3ccccc3)C(=O)OC2)cc1 [Rofecoxib],0,0,0,0,0,0,0,0,0,0
COc1cc2ncnc(Nc3ccc(F)c(Cl)c3)c2cc1NC(=O)/C=C/CN1CCCCC1 [Dacomitinib],0.458,0,0,8.45,0,16.9,0.139,5.43,3.31,14.6
CCCCCCCCCCCCCCCCCCOP(=O)([O-])OC1CC[N+](C)(C)CC1 [Perifosine],0,0,0.853,0,0,0.579,0,0,0,0
C[C@]12CC[C@@H]3c4ccc(O)cc4C[C@@H](CCCCCCCCC[S+]([O-])CCCC(F)(F)C(F)(F)F)[C@H]3[C@@H]1CC[C@@H]2O (stereo not given in full) [Fulvestrant],0,0,0,0,0,0,0,0,0,0
CCC1(c2ccc(N)cc2)CCC(=O)NC1=O (stereo not given) [Aminoglutethimide],0,0,0,0,0,0,0,0,0,0
CN(N=O)C(=O)N[C@@H](C=O)[C@@H](O)[C@H](O)[C@H](O)CO [Streptozocin],0,0,0,0,0,0,0,0,0,0
O=C1CCC(N2C(=O)c3ccccc3C2=O)C(=O)N1 (stereo not given) [Thalidomide],0,0,0,0,0,0,0,0,0,0
CC1(C)NC(=O)N(c2ccc([N+](=O)[O-])c(C(F)(F)F)c2)C1=O [Nilutamide],0,0,0,0,0,0,0,0,0,0
Cc1ccc(-n2nc(C(C)(C)C)cc2NC(=O)Nc2ccc(OCCN3CCOCC3)c3ccccc23)cc1 [Doramapimod],1.64,0,0,1.32,0,0,0,1.59,2.44,0
O=P1(NCCCl)OCCCN1CCCl (stereo not given) [Ifosfamide],0.0144,0,0,0,0,0,0,0,0,0
N.N.[Cl][Pt][Cl] [Cisplatin],0,0,0,0,0,0,0,0,0,0
CN(C)/N=N/c1[nH]cnc1C(N)=O [Dacarbazine],0,0,0,0,0,0,0,0,0,0
Cn1c(CCCC(=O)O)nc2cc(N(CCCl)CCCl)ccc21 [Bendamustine],0,0,0,0,0,0,0,0,0,0
